Source: publication PMC12627862, “Therapeutic targeting of endothelial calcium signaling accelerates the resolution of lung injury” (Signal Transduction and Targeted Therapy, 2025)
Like-named read-outs stand apart in the source and are kept apart here. Starred links: 1 amine or outer side, 2 acyl side, 3 side chain; linkers in the order of their positions; H or OH if unused. Positions of bridges follow the written chain, without caps; N, C: chain ends. Non-standard residues stand in square brackets, D forms with d. Residues, ends and D or L forms follow the SMILES beside them. *: point of attachment. Leu(4,5-dehydro) = C=C(C)C[C@H](N)C(=O)O; Oic = O=C(O)[C@@H]1C[C@@H]2CCCC[C@@H]2N1; d(tBuAla) = CC(C)(C)C[C@@H](N)C(=O)O; dVal(3-OH) = CC(C)(O)[C@@H](N)C(=O)O; tBuAla = CC(C)(C)C[C@H](N)C(=O)O; R5 = C=CCCC[C@@](C)(N)C(=O)O; S5 = C=CCCC[C@](C)(N)C(=O)O; X1 = O=C(CC(O)CN[*:1])[*:2]; 4Amb = NCc1ccc(C(=O)O)cc1; X3 = NCC(O)CC(=O)*

Legend:
[1] = Stability of selected EB3 inhibitors in human blood plasma; type: in vitro ADME
Method: Supplementary Table 3. Stability of selected EB3 inhibitors in human blood plasma. The indicated inhibitors were incubated with human plasma at 37 °C and samples were taken at the indicated time points. Plasma proteins were precipitated with ice-cold perchloric acid (60%); the concentration of compounds was measured in supernatant using a liquid chromatography-tandem mass spectrometry (LC-MS/MS). See also Figures 1 and 2.

[2] = Stability at various storage conditions; type: physicochemical; settings: for amount of peptide remaining after storage: phosphate-buffered sterile saline, 8 days, LC-MS/MS
Method: Stability assay of peptides in various storage conditions. Peptides were dissolved and stored in phosphate-buffered sterile saline at -20, 4, 37, and 60°C for 8 days. The amount of peptide remaining after the study was analyzed by LC-MS/MS.
Supplementary Table 5. Stability of selected compounds at various storage conditions. Preliminary accelerated storage stability at various temperature conditions for the selected inhibitors was tested in phosphate-buffered sterile saline at -20 °C, 4 °C, 37 °C and 60 °C for 8 days. See also Figures 1 and 2.

[3] = target: EB3 interactions with IP3R3-GFP (Homo sapiens, UniProt Q9UPY8); experiment: Competitive binding: inhibition of EB3 interaction with IP3R3-GFP in vitro; type: biochemical; settings: 250 nM
From the text: We tested the efficacy of twenty-three compounds in inhibiting EB3 interactions with IP3R3-GFP via an in vitro approach developed by us[12],[13]. […] Guided by NMR studies, we predicted the binding pose of 109 to EB3 via AutoDock Vina[13],[24],[25].

[4] = Lipophilicity of peptides, logP(oct/wat); type: physicochemical
Summary of the method: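 Shake-flask partition between n-octanol and phosphate buffer, each phase pre-saturated with the other; peptides dissolved in buffer, partitioned at several octanol:water ratios, shaken 1 h at room temperature. After equilibration both phases assayed for peptide; logP = log(octanol/water concentration ratio).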

[5] = Aggregation / solubility at 1 mM; type: physicochemical; settings: summary calls it solubility at 1mM
Summary of the method: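 Solubility and aggregation of compounds were assessed experimentally at 1 mM. Lipophilicity was determined as octanol/water partition coefficient, logP(oct/wat).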

[6] = system: human primary microvascular lung endothelial cells (HLMVECs); experiment: Peptide uptake in endothelial cells; type: cell-based
Method: We next analyzed the cell-penetrating properties of the selected compounds, hereafter referred to as vascular therapeutics (VT). The rate of uptake of 5’6-FAM (fluorescein)-labeled compounds by human primary microvascular lung endothelial cells (HLMVECs) was determined via confocal fluorescence live-cell imaging. FAM-labeled Myr-EBIN[13] and fluorescein alone were used as positive and negative controls, respectively. The t½ uptake and maximal uptake were determined from changes in the integrated fluorescence intensity over a 30 min period (Fig. 2a and Supplementary Fig. 1a). […] Like Myr-EBIN, compounds VT-107, -108 and -109 presented the highest uptake rates of 92.5 ± 5.0%, 82.5 ± 2.8% and 94.7 ± 4.9%, respectively, whereas the linear compound VT-101 was taken up less efficiently, with an average uptake of 58.4 ± 2.7% (Fig. 2a). […] The t½ uptake, however, varied between the tested compounds (Fig. 2b). The stapled compounds presented the shortest t½ uptake, whereas the linear compounds presented the longest t½ (Fig. 2b).
Peptide uptake in endothelial cells. The rate of peptide uptake by primary human microvascular endothelial cells was measured using 5’6FAM (fluorescein)-labeled peptides and confocal fluorescence live-cell imaging, with fluorescein alone used as a negative control. Changes in intracellular fluorescence for each peptide were monitored over time, and saponin, a detergent, was added at the end of the experiment to induce full uptake of the tested peptides by endothelial cells. The fluorescence intensity inside the cells was tracked over time, and the half-time uptake (t1/2) and maximum uptake were calculated.

Chain of EB3 interactions with IP3R3-GFP (Q9UPY8 whole entry): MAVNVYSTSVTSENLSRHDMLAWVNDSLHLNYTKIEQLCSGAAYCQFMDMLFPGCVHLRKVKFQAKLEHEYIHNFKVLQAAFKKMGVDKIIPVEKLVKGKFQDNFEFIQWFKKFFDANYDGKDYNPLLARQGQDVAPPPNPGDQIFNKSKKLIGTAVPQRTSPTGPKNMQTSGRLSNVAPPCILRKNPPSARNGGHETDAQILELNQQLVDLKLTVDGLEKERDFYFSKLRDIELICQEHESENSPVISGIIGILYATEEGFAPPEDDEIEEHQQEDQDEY

## CC(C)(C)C[C@H](NC(=O)CC(O)CNC(=O)[C@@H]1C[C@@H]2CCCC[C@@H]2N1C(=O)[C@H](CC(C)(C)C)NC(=O)c1ccc(CNC(=O)[C@H](NC(=O)[C@H](N)Cc2ccccc2)C(C)(C)O)cc1)C(=O)O (stereo partly drawn) [compound 101, (2S)-2-(4-((2S,3aS,7aS)-1-((S)-2-(4-(((R)-2-((R)-2-amino-3-phenylpropanamido)-3-hydroxy-3-methylbutanamido)methyl)benzamido)-4,4-dimethylpentanoyl)octahydro-1H-indole-2-carboxamido)-3-hydroxybutanamido)-4,4-dimethylpentanoic acid.] (H-[dF][dVal(3-OH)][4Amb][tBuAla][Oic][X1][tBuAla]-OH)
[1]; human, plasma
  remaining at 1.5 h: 87%
  remaining at 20 h: 85%
[2]
  storage stability: stable
[3]
  inhibition at 0.25 µM: 41%
[4]
  logD: 0.52
[5]
  Aggregation at 1mM: weak signal
[6]
  half-time uptake t1/2: 9.58 ± 0.09 min
  penetration of the cell membrane: able to penetrate the cell membrane without the addition of a cell internalization signal

## C=C(C)C[C@@H]1NC(=O)[C@](C)(NC(=O)c2ccc(CNC(=O)CC(O)CN)cc2)CCC/C=C\CCC[C@@](C)(C(=O)N[C@H](CC(C)(C)C)C(=O)O)NC(=O)CC(O)CNC(=O)[C@@H]2C[C@@H]3CCCC[C@@H]3N2C1=O (stereo partly drawn) [compound 107, (2R)-2-((8S,17R,20S,22aS,26aS,27aS,Z)-17-(4-((4-amino-3-hydroxybutanamido)methyl)benzamido)-4-hydroxy-8,17-dimethyl-20-(2-methylallyl)-1,6,18,21-tetraoxo 2,3,4,5,6,7,8,9,10,11,14,15,16,17,18,19,20,21,22a,23,24,25,26,26a,27,27a-hexacosahydro-1H-[1,4,7,12]tetraazacyclotricosino[4,5-a]indole-8-carboxamido)-4,4-dimethylpentanoic acid] ({X3-4Amb}-[R5][Leu(4,5-dehydro)][Oic][X1][S5][d(tBuAla)]-OH; staple (Z) 1-5)
[1]; human plasma, 37 °C, 1.5 hr, perchloric acid (60%) precipitation, LC-MS/MS, read-out: compound remaining in human plasma
  remaining at 1.5 h: 87%
[1]; human plasma, 37 °C, 20 hr, perchloric acid (60%) precipitation, LC-MS/MS, read-out: compound remaining in human plasma
  remaining at 20 h: 65%
[2]; 4 °C
  amount of peptide remaining after storage: 88%
[2]; 37 °C
  amount of peptide remaining after storage: 85%
[2]; 60 °C
  amount of peptide remaining after storage: 85%
[2]; -20 °C
  amount of peptide remaining after storage: 94%
[3]
  inhibition at 0.25 µM: 65%
[4]; shake-flask n-octanol/phosphate buffer, mutually saturated, shaken 1 hour at room temperature, read-out: Log P (Octanol/Water)
  logD: 0.51
[5]
  Aggregation at 1mM: weak signal
[6]; 5’6-FAM-labeled compounds, HLMVECs, confocal live-cell imaging over 30 min, mean ± SEM, n = 16–45 cells per group
  uptake, percentage of the maximal values obtained following saponin treatment: 92.5 ± 5.0%
[6]; 5’6-FAM-labeled compounds, HLMVECs, confocal live-cell imaging, n = 3 independent experiments
  half-time uptake t1/2: 0.21 ± 0.40 min
[6]; 5’6-FAM-labeled compounds, HLMVECs, no cell internalization signal
  penetration of the cell membrane: able to penetrate the cell membrane without the addition of a cell internalization signal
